Where two headings read alike, the source gives them in different places.
Key:
[1] = format: in vivo; settings: MSD mice, oral gavage 0.3 mg/day/mouse, 10 days
Experimental: (§1) Multiple Sulfatase Deficiency (MSD) mice were treated with placebo (n=3) or torin 2 (n=3) during 10 days (gavage-oral administration; 0.3 mg torin 2/day/mouse in 50% PEG400). […] After the treatment liver tissues were collected and GAG accumulation was determined by alcian blue staining.

[2] = system: glycosaminoglycan (GAG) accumulation in MSD NSCs; assay: Alcian blue staining of GAGs in differentiated NSCs from MSD mice (FIG. 22); format: cell-based, mouse; settings: glia-differentiated MSD NSCs, 10 nM, 24 hours, versus DMSO
Experimental: After 24 hours, the GAG content was determined by alcian blue (AB) staining. Both torins were able to reduce GAG staining in MSD treated cells as compared to DMSO treated cells.
Neuronal progenitor cells were isolated from cortices of WT and MSD pups (P0) by tissue homogenization using the neural tissue dissociation kit and separation using magnetic sorting of cells expressing the stem cell marker prominin-1 (Miltenyi Biotec Srl). Neuronal progenitor cells were maintained in ESGRO complete medium (Hyclone) in the presence of EGF and FGF2 growth factors (Prepotech). Where indicated, neural stem cells (NSCs) were differentiated by removing growth factors and incubate in ESGRO medium containing 2% of serum for at least 48 h.
Neuronal progenitor cells were isolated from cortices of WT and MSD pups (P0) by using standard protocols. Neuronal stem cells (NSCs) were fixed in Methacarn (60% Methanol; 10% Acetic Acid; 30% Chloroform) for 15 min at RT. After washing the cells were stained for 3 hours in 1% alcian blue pH 2.5, rinsed in 0.3% acetic acid and water and mounted in 100% for visualization.

TFEB [3] = assay: High content TFEB-GFP nuclear translocation assay; format: cell-based; settings: Homo sapiens, TFEB-GFP HeLa cells
Experimental: (§2) Immunoblotting of protein extracts isolated from HeLa cells treated overnight, as indicated. Membranes were probed with antibodies for p-T202/Y204-ERK1/2, ERK1/2, p-T389-S6K, and S6K to measure ERK and mTORC1 activities. […] FLAG immunoblotting of cytosolic and nuclear fractions isolated from TFEB-3×FLAG HeLa cells cultured in amino acid-free media and subsequently stimulated as indicated for at least 3 h. Correct subcellular fractionation was verified with H3 and tubulin antibodies. […] After 3 h at 37° C. in RPMI medium containing one of each of the compounds, the cells were washed, fixed, and stained with DAPI and photographed by using confocal automated microscopy (Opera high content system, Perkin Elmer). […] Scale bars represent 30 μm. […] The EC50 for each compound was calculated using Prism software (see Materials and Methods for details). […] Antibody used were p-T389-S6K, S6K and FLAG. […] HeLa cells stably expressing Flag-3×TFEB were infected with lentiviruses encoding a Short hairpin (Sh-) RNA targeting luciferase (control) or RagC and RagD mRNAs. […] TFEB localization was detected with a FLAG antibody, whereas tubulin and H3 were used as controls for the cytosolic and nuclear fraction, respectively; levels of S6K phosphorylation were used to test RagC and RagD knockdown efficiency.
After 3 hours at 37° C. in RPMI medium cells were washed, fixed, and stained with DAPI. For the acquisition of the images, ten pictures per each well of the 384-well plate were taken by using confocal automated microscopy (Opera high content system, Perkin Elmer). A dedicated script was developed to perform the analysis of TFEB localization on the different images (Acapella software, Perkin Elmer). The script calculates the ratio value resulting from the average intensity of nuclear TFEB-GFP fluorescence divided by the average of the cytosolic intensity of TFEB-GFP fluorescence. The results were normalized using negative (RPMI medium) and positive (HBSS starvation) control samples in the same plate. The data are represented by the percentage of nuclear translocation at the different concentrations of each compound using Prism software (GraphPad software). The EC50 for each compound was calculated using non-linear regression fitting (Prism software).
In order to find additional small molecules able to induce the translocation of TFEB from the cytosol to the nucleus, the applicants developed a cell-based high content assay using stable HeLa cells overexpressing TFEB fused to the green fluorescent protein (TFEB-GFP). In the assay imaging of treated cells is acquired by an automated confocal microscope (OPERA system) and the analysis of those images with Acapella image software calculates the ratio of the average of fluorescence intensity of TFEB-GFP between the cytosol and nucleus of the cell (see Materials and methods for details). […] They tested ten concentrations for each inhibitor.

[4] = system: Multiple Sulfatase Deficiency (MSD) mice; assay: Liver GAG accumulation by alcian blue staining in treated MSD mice (FIG. 24); format: in vivo; settings: oral gavage 0.3 mg/day/mouse in 50% PEG400, 10 days, n=3
Experimental: FIG. 24 Torin 2 reduces GAG accumulation in the liver of MSD mice. MSD mice were treated with placebo (MSD—750) or torin2 (MSD—727) during 10 days (oral administration; 0.3 mg torin 2/day/mouse in 50% PEG400). After the treatment liver tissues were collected and GAG accumulation was determined by alcian blue staining (black spots).
as §1
Sections of paraffin-embedded liver tissue were stained with 1% Alcian blue (Sigma-Aldrich) and counterstained with Nuclear-Fast red (Sigma-Aldrich).

[5] = system: vacuolization in MSD cells; assay: Electron microscopy of vacuolization in differentiated MSD NSCs (FIG. 23); format: cell-based, mouse
Experimental: Differentiated NSC were fixed on glutaraldehyde and processed for standard electron microscopy.
Cells were washed with PBS, fixed in 0.05% glutaraldehyde, and dissolved in 0.2 M Hepes buffer (pH 7.4) for 30 min at room temperature. The cells were then post-fixed for 2 h in OsO4. After dehydration in graded series of ethanol, the cells were embedded in Epon 812 (Fluka) and polymerized at 60° C. for 72 h. Thin sections were cut at the Leica EM UC6, counterstained with uranyl acetate and lead citrate.

TFEB target genes = assay: qPCR of TFEB target genes in primary hepatocytes (FIG. 21B, C); format: cell-based, mouse; settings: hepatocytes from TFEB conditional knockout mice (Tcfebflox/flox; alb-CRE)
Source text: (§3) Subsequently, cells were lysed and protein extracts were immunoblotted with the indicated antibodies. […] Quantitative PCR (qPCR) of TFEB target genes in primary hepatocytes from control (flox/flox) and Tcfeb−/− (flox/flox; alb-Cre) mice. […] The expression levels are shown as % increased expression of the treated versus the corresponding untreated samples. Values represent means±s.d. of three independent hepatocyte preparations (three mice/genotype). Student's t-test (two tailed) *P-value ≦0.05.

mTOR = mTOR (Mus musculus, UniProt Q9JLN9); settings: primary hepatocytes treated overnight
Source text: as §3

TFEB [6] = assay: Lysosomal stress: TFEB-3xFLAG nuclear/cytoplasmic fractionation immunoblot in HeLa and HEK-293T cells (FIG. 18); format: cell-based; settings: treated overnight; chloroquine 100 μM, Salicylihalamide A 2 μM
Source text: FIG. 18 Lysosomal stress induces TFEB nuclear translocation. […] Histone 3 (H3) and tubulin were used as nuclear and cytosolic markers, respectively. Blots are representative of triplicate experiments.
The mouse anti-TFEB monoclonal antibody was purchased from My Biosource catalogue No. MBS 120432. To generate anti-pS142 specific antibodies, rabbits were immunized with the following peptide coupled to KLH: AGNSAPN{pSer}[…]. Following the fourth immunization, rabbits were sacrificed and the serum was collected. Non-phosphospecific antibodies were depleted from the serum by circulation through a column containing the nonphosphorylated antigene. The phosphospecific antibodies were subsequently purified using a column containing the phosphorylated peptide. Cells were lysed with M-PER buffer (Thermo) containing protease and phosphatase inhibitors (Sigma); nuclear/cytosolic fractions were isolated as above described. Proteins were separated by SDS-PAGE (Invitrogen; reduced NuPAGE 4-12% Bis-tris Gel, MES SDS buffer). If needed, the gel was stained using 20 ml Imperial Protein Stain (Thermo Fisher) at room temperature for 1 h and de-stained with water. […]
TFEB subcellular localization was then analysed in HeLa and HEK-293T cells transiently transfected with a TFEB-3×FLAG plasmid and treated overnight with inhibitors of lysosomal function.

mTORC1 = mTORC1 activity by level of p-P70S6K in HeLa cells treated overnight (FIG. 19A); format: cell-based
Experimental: as §2

SMILES	body weight after treatment [1]	survival [1]	alcian blue-stained GAGs [2]	EC50 (TFEB [3]; 3 h, ten concentrations 2.54 nM to 50 μM (FIG. 19D), read-out: EC50, TFEB nuclear translocation) [nM]	EC50 (TFEB [3]; mobilization of cytosolic TFEB to the nucleus, 3 h at 37° C. in RPMI, ten concentrations 50 μM to 2.54 nM, 4 runs, read-out: Average EC50) [nM]	GAG staining in liver [4]	cellular vacuolization [5]	transcriptional response of TFEB target genes versus control hepatocytes (TFEB target genes)	mTOR activity as level of p-S6K (mTOR)	nuclear translocation of exogenously expressed TFEB (TFEB [6])	mTORC1 activity as level of p-P70S6K (mTORC1)
Nc1ccc(-c2ccc3ncc4ccc(=O)n(-c5cccc(C(F)(F)F)c5)c4c3c2)cn1 [TORIN 2]	no weight differences	all the mice treated survived	striking reduction	1670	< 7000	significant reduction	reduces vacuolization	–	–	–	–
CCN(CC)CCCC(C)Nc1ccnc2cc(Cl)ccc12 (centres unmarked) [chloroquine]	–	–	–	–	–	–	–	significantly blunted	inhibited mTOR	induced nuclear translocation	inhibited mTORC1 activity

From patent US20140038920A1, “TFEB PHOSPHORYLATION INHIBITORS AND USES THEREOF” (FONDAZIONE TELETHON, priority 2011, published 2014)
